Tests used:
STAT3 = STAT3 (Homo sapiens, UniProt P40763); assay: Fluorescence polarization competitive binding assay, STAT3 SH2 domain; details: for inhibition at 100 µM: read-out: Inhibition of STAT3 at 100 µM
Text: Expression and purification of STAT1, STAT3, STAT4, STAT5a, STAT5b, STAT5a Trp566Arg, STAT5b Arg566Trp, STAT5b 6M, STAT5b 7M, STAT6, and Lck have previously been described.[4, 12] STAT proteins were purified over a single His-Bind resin (Millipore) column.
Wild-type and mutant STAT5a/b proteins used for activity analysis of 20 were purified over two successive His-Bind resin columns.[4, 13]
Fluorescence Polarization assays
Competitive binding assays based on fluorescence polarization were essentially carried out as described.[14] Unless stated otherwise, the following final concentration of proteins were used:
STAT4; 105 nM for STAT6; 30 nM for Lck. Final concentration of all peptides: 10 nM. Peptides used: 5-carboxyfluorescein-GpYLVLDKW for STAT5a/b and point mutants thereof; 5-carboxyfluorescein-GpYLPQTV-NH2 for STAT3; 5-carboxyfluorescein-GpYDKPHVL for STAT1; 5-carboxyfluorescein-GpYLPQNID-OH for STAT4; 5-carboxyfluorescein-
analysis of 20 against wild-type (wt) STAT5a/b and STAT5a/b point mutants, the following concentrations of double-purified protein were used, which reflect the approximate Kd values of the interactions with 5-carboxyfluorescein-GpYLVLDKW: STAT5a wt: 147 nM; STAT5b wt:
STAT5b 6M: 80 nM; STAT5b 7M: 282 nM. Assay buffer: 10 mM Tris (pH 8.0), 50 mM NaCl, 1 mM EDTA, 1 mM DTT, 0.1 % Nonidet P-40 substitute, and 2 % DMSO in water. A major part of the pipetting was done using a Biomek FXp sceening robot (Beckman-Coulter). Protein and test compounds were incubated for 1 h, followed by addition of the fluorescein-labeled peptide.
Fluorescence polarization was measured after another hour using an Infinite F500 plate reader (Tecan). IC50 values were converted to Ki-values using the published equation.[15]

STAT5a = target: T1, STAT5a (Homo sapiens, UniProt P42229); assay: Fluorescence polarization competitive binding assay, STAT5a; details: for inhibition at 100 µM: read-out: Inhibition of STAT5a at 100 µM
T1 construct: made in house
T1 sequence (P42229 1-794): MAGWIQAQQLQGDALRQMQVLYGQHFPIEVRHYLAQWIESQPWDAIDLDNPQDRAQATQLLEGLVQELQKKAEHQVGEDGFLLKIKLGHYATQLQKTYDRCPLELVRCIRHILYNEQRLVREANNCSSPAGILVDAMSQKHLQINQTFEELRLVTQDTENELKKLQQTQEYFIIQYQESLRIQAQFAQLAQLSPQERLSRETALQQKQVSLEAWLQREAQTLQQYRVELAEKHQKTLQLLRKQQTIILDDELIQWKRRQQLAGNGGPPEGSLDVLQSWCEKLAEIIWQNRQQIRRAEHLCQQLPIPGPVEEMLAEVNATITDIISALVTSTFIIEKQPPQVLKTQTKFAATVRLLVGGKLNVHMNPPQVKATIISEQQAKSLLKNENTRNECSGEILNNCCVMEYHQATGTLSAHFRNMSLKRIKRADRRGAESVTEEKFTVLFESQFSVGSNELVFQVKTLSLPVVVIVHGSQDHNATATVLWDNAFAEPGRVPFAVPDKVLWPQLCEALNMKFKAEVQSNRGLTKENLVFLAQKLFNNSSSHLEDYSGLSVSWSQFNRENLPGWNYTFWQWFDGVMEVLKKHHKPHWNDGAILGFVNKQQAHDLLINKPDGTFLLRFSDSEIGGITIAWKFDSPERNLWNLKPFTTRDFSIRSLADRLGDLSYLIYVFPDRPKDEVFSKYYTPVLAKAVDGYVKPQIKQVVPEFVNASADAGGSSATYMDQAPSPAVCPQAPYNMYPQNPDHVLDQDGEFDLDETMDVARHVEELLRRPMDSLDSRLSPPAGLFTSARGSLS

STAT5b = target: T2, STAT5b (Homo sapiens, UniProt P51692); assay: Fluorescence polarization competitive binding assay, STAT5b; details: for inhibition at 100 µM: read-out: Inhibition of STAT5b at 100 µM
T2 construct: made in house
T2 sequence (P51692 1-787): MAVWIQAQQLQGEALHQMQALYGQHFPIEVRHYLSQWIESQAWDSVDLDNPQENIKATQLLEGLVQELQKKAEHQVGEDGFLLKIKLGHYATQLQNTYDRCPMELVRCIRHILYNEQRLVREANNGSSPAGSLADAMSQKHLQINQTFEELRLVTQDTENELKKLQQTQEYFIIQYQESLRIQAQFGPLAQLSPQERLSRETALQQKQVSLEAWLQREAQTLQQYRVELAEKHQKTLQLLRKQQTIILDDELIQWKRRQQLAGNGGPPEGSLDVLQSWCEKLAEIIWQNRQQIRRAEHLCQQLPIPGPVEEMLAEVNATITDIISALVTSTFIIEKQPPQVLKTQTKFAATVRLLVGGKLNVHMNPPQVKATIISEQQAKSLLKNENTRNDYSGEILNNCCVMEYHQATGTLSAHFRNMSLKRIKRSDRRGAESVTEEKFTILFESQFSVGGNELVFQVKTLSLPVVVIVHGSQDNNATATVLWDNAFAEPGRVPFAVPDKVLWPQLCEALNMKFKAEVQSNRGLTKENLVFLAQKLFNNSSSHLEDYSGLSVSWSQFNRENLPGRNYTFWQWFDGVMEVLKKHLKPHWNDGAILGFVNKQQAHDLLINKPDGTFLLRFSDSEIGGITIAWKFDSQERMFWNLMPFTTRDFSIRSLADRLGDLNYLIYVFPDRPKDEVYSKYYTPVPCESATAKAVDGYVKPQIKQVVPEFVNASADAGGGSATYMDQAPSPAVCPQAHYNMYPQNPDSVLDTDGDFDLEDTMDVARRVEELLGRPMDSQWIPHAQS

Sequence of STAT3 (P40763 whole entry, species assumed, the tested form may be a part): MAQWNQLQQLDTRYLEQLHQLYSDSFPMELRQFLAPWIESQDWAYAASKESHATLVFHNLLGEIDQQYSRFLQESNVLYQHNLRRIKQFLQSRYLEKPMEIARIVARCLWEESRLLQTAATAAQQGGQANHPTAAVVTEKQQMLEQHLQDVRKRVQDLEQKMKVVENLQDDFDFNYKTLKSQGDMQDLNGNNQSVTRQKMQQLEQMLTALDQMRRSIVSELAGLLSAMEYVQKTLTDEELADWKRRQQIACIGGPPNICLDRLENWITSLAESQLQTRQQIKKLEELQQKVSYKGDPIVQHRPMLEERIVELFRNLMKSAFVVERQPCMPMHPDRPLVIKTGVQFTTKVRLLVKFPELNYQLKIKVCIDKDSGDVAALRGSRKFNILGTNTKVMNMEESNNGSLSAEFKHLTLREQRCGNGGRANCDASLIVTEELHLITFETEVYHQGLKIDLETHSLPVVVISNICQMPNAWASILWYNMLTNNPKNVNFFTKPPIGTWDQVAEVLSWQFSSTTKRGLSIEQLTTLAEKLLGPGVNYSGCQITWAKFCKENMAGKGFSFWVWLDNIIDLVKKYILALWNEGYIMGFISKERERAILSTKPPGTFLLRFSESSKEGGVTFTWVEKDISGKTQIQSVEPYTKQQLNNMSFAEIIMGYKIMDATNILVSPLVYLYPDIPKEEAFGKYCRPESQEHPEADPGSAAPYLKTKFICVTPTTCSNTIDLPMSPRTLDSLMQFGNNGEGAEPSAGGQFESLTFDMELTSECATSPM

SMILES | inhibition at 100 µM (STAT3) [%] | IC50 (STAT5a) [µM] | Ki (STAT5a) [µM] | inhibition at 100 µM (STAT5a) [%] | IC50 (STAT5b) [µM] | Ki (STAT5b) [µM] | inhibition at 100 µM (STAT5b) [%] | further results
COc1ccc(-c2cc(OP(=O)(O)O)cc(-c3ccc(Cl)cc3)c2)cc1 [Compound 1] | 43 ± 5 | 39.9 ± 1.9 | 19.7 ± 0.9 | 73 ± 5 | 49.4 ± 3.3 | 24.5 ± 1.6 | 73 ± 3 | IC50 (STAT3): 120 ± 10 µM; Ki (STAT3): 59.2 ± 5 µM
O=C(C=Cc1c(F)c(F)c(F)c(F)c1F)c1cccc(OP(=O)(O)O)c1 [Compound 2] | 43 ± 2 |  |  | 51 ± 4 |  |  | 37 ± 2 | 
O=C(C=Cc1ccccc1C(F)(F)F)c1cccc(OP(=O)(O)O)c1 [Compound 3] | 53 ± 3 |  |  | 37 ± 9 |  |  | 31 ± 3 | 
CC(=O)Nc1ccc(C=CC(=O)c2cccc(OP(=O)(O)O)c2)cc1 [Compound 4] | 29 ± 7 |  |  | 57 ± 2 |  |  | 52 ± 4 | 
O=C(c1ccc([N+](=O)[O-])cc1)c1coc2ccc(OP(=O)(O)O)cc12 [Compound 5] | 26 ± 8 |  |  | 87 ± 2 |  |  | 88 ± 1 | 
O=C(Cn1ccc2ccccc21)Nc1cccc(OP(=O)(O)O)c1 [Compound 6] | 11 ± 6 |  |  | 46 ± 6 |  |  | 24 ± 14 | 
O=C(Nc1cccc(OP(=O)(O)O)c1)c1cccc(S(=O)(=O)N2CCCC2)c1 [Compound 7] | 3 ± 2 |  |  | 26 ± 17 |  |  | 4 ± 9 | 
O=C(CCNS(=O)(=O)c1ccc(C2CCCCC2)cc1)N1CCN(c2ccc(OP(=O)([O-])[O-])cc2)CC1.[Na+].[Na+] [Compound 8] |  |  |  |  |  |  |  | Inhibition of STAT3 at 100 µM (STAT3; FP assay, 100 µM): 33±2%; Inhibition of STAT5a at 100 µM (STAT5a; FP assay, 100 µM): 65±5%; Inhibition of STAT5b at 100 µM (STAT5b; FP assay, 100 µM): 63±1%
CN(C1CCCCC1)S(=O)(=O)c1cccc(C(=O)N2CCN(c3ccc(OP(=O)(O)O)cc3)CC2)c1 [Compound 9] | 33 ± 5 |  |  | 41 ± 8 |  |  | 23 ± 8 | 
O=P(O)(O)Oc1cc(-c2ccc(Cl)cc2)cc(-c2ccc(Cl)cc2)c1 [Compound 10] |  | 42.2 ± 3.3 | 20.9 ± 1.6 |  | 37.7 ± 0.05 | 18.7 ± 0.02 |  | IC50 (STAT3): 38.4 ± 1.7 µM; Ki (STAT3): 18.9 ± 0.9 µM
O=P(O)(O)Oc1cc(-c2ccccc2)cc(-c2ccccc2)c1 [Compound 11] |  | 47.9 ± 4.3 | 23.7 ± 2.1 |  | 95 ± 3 | 48.4 ± 2 |  | inhibition at 200 µM (STAT3; read-out: STAT3 inhibition at 200 μM): 48 ± 1%
COc1ccc(-c2cc(O)cc(-c3ccc(OC)cc3)c2)cc1 [Compound 12 a] |  |  |  |  |  |  |  | STAT3 inhibition at 200 μM (STAT3; FP assay, 200 µM): no inhibition; STAT5a inhibition at 200 μM (STAT5a; FP assay, 200 µM): no inhibition; STAT5b inhibition at 200 μM (STAT5b; FP assay, 200 μM (highest concentration tested)): no inhibition
COc1ccc(-c2cc(OP(=O)(O)O)cc(-c3ccc(OC)cc3)c2)cc1 [Compound 12] |  | 27.9 ± 1.7 | 13.8 ± 0.8 |  | 77.5 ± 0.4 | 38.5 ± 0.2 |  | IC50 (STAT3): 156 ± 12 µM; Ki (STAT3): 77.1 ± 5.8 µM

Reference: publication PMC6973011, “Stafia‐1: a STAT5a‐Selective Inhibitor Developed via Docking‐Based Screening of in Silico O‐Phosphorylated Fragments” (Chemistry (Weinheim an Der Bergstrasse, Germany), 2019)
